Measured values published in ChEMBL document CHEMBL3868628, “Dimeric sesquiterpene and thiophenes from the roots of Echinops latifolius” (Bioorg Med Chem Lett, 2016).

Species: Mus musculus
Experiment: Cytotoxicity against mouse RAW264.7 cells assessed as reduction in cell viability at 1 to 10 uM after 24 hrs by cell counting based colorimetric analysis
Assay type: toxicity
Details: raw264.7, 24 h

| SMILES | Activity |
| --- | --- |
| C=C(C)[C@@H]1CC[C@]2(C)C(=C(C)OC3=C2C[C@H]2C4C[C@H](C(C)C)CC[C@@]4(C)CC(=O)[C@@]2(O)O3)C1 (stereo not given in full) | Toxic |

System: not listed separately
Experiment: Antiinflammatory activity in mouse RAW264.7 cells assessed as reduction in LPS-induced NO production after 24 hrs in presence of LPS by colorimetric analysis
Assay type: functional, cell-based
Details: RAW264.7, 24 h

| SMILES | IC50 [µM] |
| --- | --- |
| CC#Cc1ccc(-c2ccc(C=O)s2)s1 | > 100 |
| C=C1CCC[C@]2(C)C[C@]3(O)OC(=O)C(C)=C3C[C@@H]12 [ATRACTYLENOLIDE III] | > 100 |
| COc1ccc2c(c1)c(CC(=O)O)c(C)n2C(=O)c1ccc(Cl)cc1 [INDOMETHACIN] | 13.2 |
| N=C(N)NN [PIMAGEDINE] | 24.2 |

The next lines start with the values.

| IC50 [µM] | SMILES |
| --- | --- |
| 48.7 | CC#Cc1ccc(-c2ccc(C(O)CO)s2)s1 (stereo not given) |
| 12.8 | C/C=C\C#CC#Cc1ccc(C(O)CO)s1 (stereo not given) |
| 30.9 | CC#Cc1ccc(-c2ccc(C(CO)OC)s2)s1 (stereo not given) |
| > 100 | CC#Cc1ccc(-c2ccc(C(=O)OC)s2)s1 |
| 28.2 | C/C=C/C#CC#Cc1ccc(C(O)CO)s1 (stereo not given) |
